Test results: article PMC6155628 (Molecules : A Journal of Synthetic Chemistry and Natural …, 2017)
Where two headings read alike, the source gives them in different places. Residues, ends and D or L forms follow the SMILES beside them.

Legend:
[1] = target: Angiotensin converting enzyme (ACE) (Homo sapiens, UniProt P12821); experiment: biochemical
[2] = test system: spontaneously hypertensive rats (SHR); conditions: oral, dose not given, 4 h after administration, tail-cuff, n = 6
SHR = conditions: cited from earlier work
ACE = conditions: read-out: IC50 (ACE inhibition), cited from earlier work
[3] = test system: Ehrlich ascites sarcoma cells; conditions: Ehrlich ascites sarcoma cells in mice; cited from earlier work
Text: Adlay seed (soft-shelled Job’s tears, Coix larchryma-jobi L. var. ma-yuen Stapf) has been used in traditional Chinese medicine and has been a nourishing food for more than a thousand years. It has been used to treat warts, chapped skin, rheumatism, neuralgia, hypertension as well as being an anti-inflammatory and anticancer agent. An increasing effort had been concentrated on finding active components from adlay. […] The main ingredient of ...

[4] = from haruan myofibrillar protein hydrolysate (proteinase K and thermolysin)

Sequence of Angiotensin converting enzyme (ACE) (P12821 30-1306, species assumed): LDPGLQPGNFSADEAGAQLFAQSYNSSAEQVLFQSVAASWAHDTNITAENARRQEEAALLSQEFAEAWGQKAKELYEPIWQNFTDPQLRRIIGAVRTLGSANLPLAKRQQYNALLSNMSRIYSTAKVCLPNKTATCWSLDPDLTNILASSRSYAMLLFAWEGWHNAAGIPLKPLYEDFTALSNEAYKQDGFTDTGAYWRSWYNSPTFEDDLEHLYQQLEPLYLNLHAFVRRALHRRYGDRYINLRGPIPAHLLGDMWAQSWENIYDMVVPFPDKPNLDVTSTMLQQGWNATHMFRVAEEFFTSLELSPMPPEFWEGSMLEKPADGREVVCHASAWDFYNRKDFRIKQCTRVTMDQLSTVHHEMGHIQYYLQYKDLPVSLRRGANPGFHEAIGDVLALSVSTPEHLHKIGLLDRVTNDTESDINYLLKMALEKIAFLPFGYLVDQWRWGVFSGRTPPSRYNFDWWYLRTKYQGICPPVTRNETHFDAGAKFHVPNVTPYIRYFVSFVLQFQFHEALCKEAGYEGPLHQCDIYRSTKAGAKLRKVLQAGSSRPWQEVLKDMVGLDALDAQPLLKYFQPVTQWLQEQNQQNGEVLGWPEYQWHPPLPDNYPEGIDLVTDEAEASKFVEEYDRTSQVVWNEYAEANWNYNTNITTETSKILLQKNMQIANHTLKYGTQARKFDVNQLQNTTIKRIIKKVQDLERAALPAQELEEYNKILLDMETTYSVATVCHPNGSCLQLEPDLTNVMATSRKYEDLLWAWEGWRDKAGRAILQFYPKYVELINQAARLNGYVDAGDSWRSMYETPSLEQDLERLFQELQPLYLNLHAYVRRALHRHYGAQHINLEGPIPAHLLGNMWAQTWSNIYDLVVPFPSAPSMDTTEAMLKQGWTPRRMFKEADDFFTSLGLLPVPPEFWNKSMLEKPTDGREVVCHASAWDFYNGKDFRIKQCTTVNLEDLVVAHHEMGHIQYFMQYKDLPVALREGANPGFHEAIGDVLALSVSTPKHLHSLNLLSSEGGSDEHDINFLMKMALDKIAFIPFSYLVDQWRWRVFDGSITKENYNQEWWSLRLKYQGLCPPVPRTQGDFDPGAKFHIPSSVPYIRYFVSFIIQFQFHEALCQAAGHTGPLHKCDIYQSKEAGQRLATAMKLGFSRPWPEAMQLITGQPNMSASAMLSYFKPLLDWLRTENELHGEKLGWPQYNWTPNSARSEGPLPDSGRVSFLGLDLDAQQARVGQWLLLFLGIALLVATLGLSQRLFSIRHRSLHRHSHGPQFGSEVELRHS

`C[C@H](NC(=O)CN)C(=O)N[C@@H](C)C(=O)NCC(=O)NCC(=O)N[C@@H](C)C(=O)N[C@@H](Cc1ccccc1)C(=O)O` [GAAGGAF] (H-GAAGGAF-OH) gave an IC50 [1] of 14.2 µM.
In the case of `C[C@H](CS)C(=O)N1CCC[C@H]1C(=O)O` [captopril], the “Maximal decrease of SBP, positive control” value [2] is reported as “approximately 28.17 mmHg”.
In the case of AAATP, the “Decrease of SBP” value (SHR; SHRs, after 8 h administration, from Spanish dry-cured ham) is listed as “around 25.62 mmHg”.
For AWLHPGAPKVF, the Antihypertensive duration (SHR; single oral, 10 mg/kg) is listed as 8 h and the “Reduction of SBP” value (SHR; single oral, 10 mg/kg, from P. esculenta protein hydrolysate) is listed as “around 30 mmHg”.
For Ala-Tyr, the IC50 (ACE; from corn gluten meal) is given as 14.2 µM.
In the case of NGTWFEPP, the IC50 (ACE; [4]) is given as 0.63 µM.
In the case of VPAAPPK, the IC50 (ACE; [4]) is given as 0.45 µM.
For coixenolide [coixenolide (I)], the Growth-inhibiting activity [3] is given as “growth-inhibiting activity”.
